Results reported in patent publication US10179120B2, “Dosage regimen of ferric trimaltol” (Iron Therapeutics Holdings AG, priority 2014, dated 2019).

Tests used:
Format in all cases: in vivo, human
[1] = Example 1: treatment with 30 mg ST10 twice daily for up to 64 weeks; settings: 30 mg twice daily for up to 64 weeks, 109 subjects
Protocol: 109 of the 128 subjects were treated with 30 mg ST10 twice daily for up to 64 weeks.

[2] = Example 2: open-label, randomised, single and repeat dose Phase I pharmacokinetic study in subjects with iron deficiency; settings: for reticulocyte haemoglobin, Mean change: baseline to day 8; for Transferrin saturation above baseline / mean serum total iron concentration above baseline: 6 h postdose
Protocol: These studies were primarily pharmacokinetic and conducted in subjects with iron deficiency having active inflammatory disease or acute chronic inflammation. An open-label, randomised, single and repeat dose parallel group Phase I pharmacokinetic study was carried out to evaluate the effect of single and repeated twice daily (bid) oral doses of ST10 at 30 mg, 60 mg and 90 mg for 8 days.
24 subjects with iron deficiency (with or without anaemia) were randomly allocated to one of the three ST10 dose groups as follows:
Group 1: 9 subjects received ST10, 30 mg twice daily for 7 days (days 1-7) plus a final 30 mg dose on the morning of day 8.
Group 2: 8 subjects received ST10, 60 mg twice daily for 7 days (days 1-7) plus a final 60 mg dose on the morning of day 8.
Group 3: 7 subjects received ST10, 90 mg twice daily for 7 days (days 1-7) plus a final 90 mg dose on the morning of day 8.
On day 1, following fasting for at least 1.5-2 hours beforehand, ST10 was administered (30 mg, 60 mg or 90 mg) and blood samples collected over the following 6 h for analysis. 60 mg was administered as two 30 mg capsules and 90 mg was administered as three 30 mg capsules, both as a single dose. Subjects continued dosing with ST10 on the evening of day 1 then every morning and evening for the next 6 days (Days 2 to 7).
On day 8 following fasting for at least 1.5-2 hours beforehand the last dosing of ST10 was administered (30 mg, 60 mg or 90 mg) and blood samples collected over the following 6 h for analysis.
On Days 1 and 8 blood samples were collected predose (0 h=time of ST10 dose) and at 5 minutes (for NTBI only), 15 minutes, 30 minutes, 45 minutes, and 1, 1.5, 2, 3, 4 and 6 h postdose.
Serum concentrations of transferrin, total iron binding capacity (TIBC), ferritin and soluble transferrin receptor; and reticulocyte haemoglobin concentrations (CHr) in whole blood were measured by central laboratories using appropriately validated methods.
These studies used transferrin saturation and total serum iron as measurements of iron uptake from the gut into the transport mechanisms. In addition serum ferritin was used as a measure of iron storage status at the end of the dosing period; all of these measurements are standard and well recognised.
One subject in the 60 mg dose group prematurely withdrew from the study on Day 7, so full profiles of all serum iron parameters were available in the 30 mg dose group for 9 subjects (days 1 and 8), in the 60 mg dose group 8 subjects on day 1 and for 7 subjects on day 8, and in the 90 mg dose group for 7 subjects (days 1 and 8).

[3] = Example 1: 12-week placebo-controlled study of ST10 30 mg twice daily in IDA patients with IBD
Protocol: 128 patients suffering from IDA were randomised. Of this group […] were suffering from Crohn's disease and 53 were suffering from ulcerative colitis. All had mild to moderate disease activity and anaemia associated with IBD which was measured according to low haemoglobin levels ([…] for women and 13 g/dL (male) and were intolerant of ferrous iron, or it could not be used. There were no restrictions on the use of gastric pH modifying agents or medications.
60 patients were treated with ST10 at a 30 mg dose twice daily, before breakfast and prior to sleep on an empty stomach for a period of 12 weeks.
60 patients received a matched placebo capsule and were treated in the same way for the same period. Withdrawal from the study before 12 weeks occurred in seven ST10 subjects and nine placebo subjects. 87% of subjects completed 12 weeks of treatment.

- Transferrin saturation above baseline ([2]; Day 1, 30 mg dose group): 17.0%
- mean serum total iron concentration above baseline ([2]; Day 1, 30 mg dose group): 11.8 µmol/L
- Transferrin saturation above baseline ([2]; Day 1, 60 mg dose group): 47.3%
- mean serum total iron concentration above baseline ([2]; Day 1, 60 mg dose group): 33.0 µmol/L
- Transferrin saturation above baseline ([2]; Day 1, 90 mg dose group): 33.3%
- mean serum total iron concentration above baseline ([2]; Day 1, 90 mg dose group): 24.3 µmol/L
- Transferrin saturation, average maximum value ([2]; Day 1, 30 mg dose group): 45.6%
- serum total iron concentration, average maximum ([2]; Day 1, 30 mg dose group): 32.3 µmol/L
- Transferrin saturation, average maximum value ([2]; Day 1, 60 mg dose group): 69.8%
- serum total iron concentration, average maximum ([2]; Day 1, 60 mg dose group): 49.1 µmol/L
- Transferrin saturation, average maximum value ([2]; Day 1, 90 mg dose group): 67.3%
- serum total iron concentration, average maximum ([2]; Day 1, 90 mg dose group): 48.7 µmol/L
- blackened stools ([3]; patients in the study of Example 1): did not report blackened stools
Substance: ferric trimaltol [ST10]
- subjects with adverse reactions [1]: 23%
- reticulocyte haemoglobin, Baseline ([2]; 30 mg bid): 33.6
- reticulocyte haemoglobin, Mean change ([2]; 30 mg bid): 0.9
- reticulocyte haemoglobin, Day 8 ([2]; 30 mg bid): 34.6
- reticulocyte haemoglobin, Baseline ([2]; 60 mg bid): 31.0
- reticulocyte haemoglobin, Mean change ([2]; 60 mg bid): 3.3
- reticulocyte haemoglobin, Day 8 ([2]; 60 mg bid): 34.1
- reticulocyte haemoglobin, Baseline ([2]; 90 mg bid): 30.8
- reticulocyte haemoglobin, Mean change ([2]; 90 mg bid): 3.0
- reticulocyte haemoglobin, Day 8 ([2]; 90 mg bid): 33.9
- Mean serum ferritin ([2]; day 1, 30 mg dose group): around 15 μg/L
- Mean serum ferritin ([2]; day 1, 60 mg dose group): ~10 µg/L
- Mean serum ferritin ([2]; day 1, 90 mg dose group): ~13 µg/L
- Mean serum ferritin ([2]; day 8, 30 mg dose group): ~22 µg/L
- Mean serum ferritin ([2]; day 8, 60 mg dose group): ~22 µg/L
- Mean serum ferritin ([2]; day 8, 90 mg dose group): ~32 µg/L
- tolerability ([2]; doses of 30 mg and above): well tolerated
- improvement of haemoglobin levels ([3]; 30 mg twice daily, 8 weeks, p<0.0001): 1.75 g/dL
- subjects with adverse events (mainly gastrointestinal) ([3]; 30 mg twice daily, 12 weeks): 38%
- subjects with normalised haemoglobin levels ([3]; 30 mg twice daily, by week 12): More than 65%
- tolerability ([3]; 30 mg twice daily, duration of the treatment): well tolerated
- Mean Hb increase from baseline to Week 12 ([3]; 30 mg twice daily, empty stomach, 12 weeks): 2.26 g/dL
- improvement of haemoglobin levels ([3]; 30 mg twice daily, week 4, p<0.0001): 1.05 g/dL
- mean Hb at Week 12 ([3]; 30 mg twice daily, week 12): 13.20 g/dL
- mean improvement in Hb, change from baseline compared to placebo ([3]; 30 mg twice daily, week 12, p<0.0001): 2.25 g/dL
- mean Hb at baseline ([3]; ST10-treated subjects, baseline): 11.10 g/dL
